Data taken from US4906618A, “Prophylactic and therapeutic agent against swine dysentery” (Fujisawa Pharmaceutical Co., Ltd., priority 1986, dated 1990).
Like-named read-outs stand apart in the source and are kept apart here.

Legend:
[1] = Acute toxicity test in mice; type: in vivo, ddy mice; conditions: single intravenous dose 20 mg (1 g/kg), five mice, 10 days of observation
Description: Further, in the acute toxicity test, each of five ddy mice (5-week old, male, 20 g in weight), was intraveneously given a single dose of WS-1627A, B, C or D 20 mg (lg/kg) and all survived.

[2] = tested on: Treponema hyodysenteriae S5709; test: Protective effect against experimental infection of Treponema hyodysenteriae in mice; type: in vivo, mice (ddy); conditions: 5 mg/kg, oral, once a day on first and second day after challenge, one week after infection
Description: 5 week-old mice (ddy, .male.) were used in these experiments. Mice were orally infected with 1.8×10^7 cells of Treponema hyodysenteriae S5709 grown for 96 hours on Trypticase soy agar plate supplemented with 5% sheep blood. On the first and second day after challenge, test compounds were given by oral administration once a day. One week after infection, the efficacy of the antibiotics on mice suffering from dysentery was determined as follows. Cecum contents from infected mice were suspended in 2 ml of saline solution, diluted twenty times with Trypticase soy medium supplemented with 5% sheep blood and cultured for T. hyodysenteriae on agar plate of Trypticase soy medium supplemented with 5% sheep blood at 37° C. for 72 hours in Gas Pak jars. The numbers of T. hyodysenteriae colony appeared on the plates were counted. Mice that gave no colony formations of T. hyodysenteriae were regarded as cured mice.

[3] = Growth promoting effect in male broiler chickens; type: in vivo, male broiler chickens (chunky); conditions: for Average body weight gain at one week after the feeding: control 95.3; for Average final body weight at one week after the feeding: control 183.8; for Efficiency of feed utilization: one week, control 2.02
Text: 8-Days-old male broiler chickens (chunky) were divided into 3 groups i.e. 2 treatment groups and a control group, each group of which consisted of 10 chicks. They were fed continuously with the feed described in Table 8.
The above Basal ration II +

[4] = Growth promoting effect in pigs; type: in vivo, pigs (LWD strain); conditions: for Efficiency of feed utilization: 6 weeks, control 2.19; for Average body weight gain at the 6th week after the feeding: control 18.0; for Average final body weight at the 6th week after the starting of the feeding: control 28.0
Text: Five sets of 24 pigs (33 days-old, LWD strain) were used. Each 24 pigs were divided into 4 groups, i.e. 3 treatment groups and a control group. Each group consisted of 3 barrows and 3 female pigs. They were fed continuously with the feed described in Table 6.
The above basal ration I +

Treponema hyodysenteriae = test: In vitro activity (MIC) against Treponema hyodysenteriae, agar dilution; type: cell-based; conditions: for MIC: Brachyspira hyodysenteriae, read-out: MIC (minimum inhibitory concentration); for MIC (minimum inhibitory concentration): 72 hours anaerobic, 37° C.
Description: The test organisms were grown anaerobically for 96 hours on Trypticase soy agar plate supplemented with 5% sheep blood. Appropriate amounts of physiological saline solution were poured into each agar plate to make a cell-suspension of test organism, which was finally adjusted at the cell density of 10^6 colony forming units (CFU)/ml. Freshly prepared Trypticase soy agar plates supplemented with 5% sheep blood which were containing serial two-fold dilutions of each of the compounds as mentioned below were inoculated with a loopful (about 5 μl) of the above-mentioned cell-suspension. The MIC (minimum inhibitory concentration) values were determined after 72 hours of anaerobical incubation at 37° C. in Gas Pak jars.

[5] = tested on: Treponema hyodysenteriae ATCC31212; test: Therapeutic effect on experimentally induced swine dysentery in piglets; type: in vivo, piglets (Landace×Large White crossbred); conditions: solution in water; for (average) days of disappearance of fecal T. h: detection limit 10^2 CFU/g of feces
Description: Seven piglets, LW (Landace×Large White crossbred) male, were used. The initial body weight at the time of inoculation of infective materials ranged from 6.5 to 8.5 kg. Piglets were divided into 4 groups ([…] and 1 group of 1 head) and were maintained in stainless cages (90×90 cm) with raised plastic net floors at 28±2° C. Feed [Milk replacer for piglet] and water were supplied ad libitum except the duration of fasting. Infective materials used were prepared as follows. A total of 300 g of mucous haemorrhagic feces, large intestinal (from caecum through rectum) contents, and mucosa obtained from a clinically affected pig (3 days after onset of swine dysentery), which was previously inoculated into its caecum with pure culture of Treponema hyodysenteriae ATCC31212 (about 3×10^9 colony forming units/head) by surgical operation, were suspended, diluted finally 2.5 times with phosphate-bufferized saline and minced by biotron homogenizer (trademark, made by Biotrona Co., Ltd.).
For the purpose of infection, all piglets were inoculated individually with about 90 g of the infective materials after 22 hours' fasting.
Treatment were done once a day for 2 consecutive days from the 5th day post inoculation.

[6] = background statement; cited from earlier work
[7] = Treatment group I, 10 ppm in feed
[8] = Treatment group II, 50 ppm in feed
[9] = Treatment group II, 20 ppm in feed
[10] = Treatment group III, 40 ppm in feed
[11] = intramuscularly 10 mg/kg body weight × 2 day, 1 pig
[12] = orally 2.5 mg/kg body weight × 2 day, 2 pigs

With `CC(=O)C1OC(Oc2ccc(C=C(C)C(=O)NC3C(O)C(O)C4OCOC4C3O)cc2O)C(O)C1O` (stereo not shown) [WS-1627B, hygromycin] the survival [1] was “all survived”, the toxic symptom [1] was “no toxic symptom was observed” and the cured/treated ([2]; listed as WS1627B) was 7/7. The “Average body weight gain at one week after the feeding” value [3, 7] was 116.5 g, the “Average final body weight at one week after the feeding” value [3, 7] was 204.5 g and the “Efficiency of feed utilization” value [3, 7] was 2.00. The “Average body weight gain at one week after the feeding” value [3, 8] was 121 g, the “Average final body weight at one week after the feeding” value [3, 8] was 209 g and the “Efficiency of feed utilization” value [3, 8] was 1.67. For the same compound, the “Efficiency of feed utilization” value [4, 7] was 2.05, the “Average body weight gain at the 6th week after the feeding” value (from here on “Average body weight gain at the 6th week”) [4, 7] was 19.6 kg and the “Average final body weight at the 6th week after the starting of the feeding” value (“Average final body weight … of the feeding” for short) [4, 7] was 29.6 kg. For the same compound, the “Efficiency of feed utilization” value [4, 9] was 2.11, the “Average body weight gain at the 6th week” value [4, 9] was 19.2 kg and the “Average final body weight … of the feeding” value [4, 9] was 29.2 kg. For the same compound, the “Efficiency of feed utilization” value [4, 10] was 2.09, the “Average body weight gain at the 6th week” value [4, 10] was 18.9 kg and the “Average final body weight … of the feeding” value [4, 10] was 28.9 kg. For the same compound, the Solubility (Solubility; acetone) was “Insoluble”, the Solubility (Solubility; chloroform) was “Insoluble” and the Solubility (Solubility; ethyl acetate) was “Insoluble”. For the same compound, the Solubility (Solubility; methanol) was “Soluble”, the Solubility (Solubility; water) was “Soluble” and the MIC (Treponema hyodysenteriae; 72 h) was under 0.8 µg/mL. The MIC (Treponema hyodysenteriae; ATCC31212, 72 h) was under 0.8 µg/mL, the “antimicrobial activities against Treponema hyodysenteriae” value (Treponema hyodysenteriae; statement in words) was “strong antimicrobial activities” and the “MIC (minimum inhibitory concentration)” value (Treponema hyodysenteriae; strain S5709) was under 0.8 µg/mL. For the same compound, the “MIC (minimum inhibitory concentration)” value (Treponema hyodysenteriae; strain TH81013) was under 0.8 µg/mL, the “(average) days of recovery to normal stool” value [5, 11] was 1 days and the “(average) days of disappearance of fecal T. h” value [5, 11] was 1 days. The “(average) days of recovery to normal stool” value [5, 12] was 2 days and the “(average) days of disappearance of fecal T. h” value [5, 12] was 2 days.
In the case of `CC(=O)C1OC(Oc2ccc(C=C(C)C(=O)NC3C(O)C(O)C4OCOC4C3O)cc2O)C(O)C1O` (stereo not drawn) [WS-1627D, epi-hygromycin], the cured/treated ([2]; listed as WS1627D) was 4/7.
For `COC(=O)N/N=C/c1c[n+]([O-])c2ccccc2[n+]1[O-]` [carbadox], the mutagenicity [6] is listed as “strong mutagenic substance”.
